Data taken from patent US12472207B2, “Anti-inflammatory compositions and methods” (RR Medsciences Pty Ltd., priority 2019, dated 2025).

Key:
[1] = NBT superoxide scavenging (SOD-like activity) assay; format: biochemical; details: for Absorbance 560 nm Ave: SOD primary data
Excerpt: The purpose of these experiments was to measure the Superoxide Dismutase-like (SOD-like) activity of the copper ion complex (RM191A) depicted in the Examples below as “Cu”. The inventors employed a modified version of the method described by Beauchamp and Fridovich (see, Beauchamp et al. 1971). The reason for this modification was to create a reaction mixture that successfully generates known quantities of the O2^− free radical but does so at a pH at which the copper ion complex is stable—specifically in the range pH 6.5-7.8.
Because of the instability of its substrate, all available chemical assays of SOD and SOD-like activity are necessarily indirect and depend upon its ability to scavenge O2^− from reaction mixtures and thus to inhibit reactions caused by O2^−.
NitroBlue Tetrazolium (NBT) was selected as an indicator to measure and compare the superoxide scavenging activities of both bovine SOD and the copper ion complex (“RM191A,” the preparation of which is described in detail in International PCT Patent Publication No. WO/AU2016/201524), This assay utilizes photochemical events to generate O2^− in a sodium tetraborate buffered solution of acetone and isopropanol which is then irradiated by high energy UV light at 254 nm (Mercury Vapour Lamp) to create O2^− in the solution.
SOD and SOD-like substances inhibit the formation of the blue formazan by neutralising the superoxide free radicals as they are forming. Blue formazan has a characteristic UV absorbance at 560 nm. The quantitation of the UV absorbance of the reaction solution at 560 nm is a direct measure the SOD and SOD-like activity of a substance.
UV absorbances of the reaction solutions were measured at 560 nm following irradiation with UV light to determine the superoxide free radical scavenging activity in situ of both bovine SOD and the copper ion complex (RM191A).
Each reaction solution consists of 0.5 ml of 200 μmol/L NBT in borate buffer (pH=7.1) and 0.5 ml of a 200 μmol/L solution of the test compound in 5.0 mL of 5 mol/L isopropanol.
To each reaction vessel 15 mg acetone (20 μL) as added to begin the reaction. Each vessel was then irradiated with UV light at 254 nm (mercury vapour lamp) for 1 minute.
The reaction solution was then transferred into UV Vis cells and the absorbance at 560 nm was measured.
A number of test solution concentrations were assayed by adding, 1.0, 1.25, 1.5, 1.75, 2.0 mL of a 200 μmol/L solution of the test compound and bringing the total volume to 5.0 mL with 5 mol/L isopropanol.
The method uses a Cu control to remove the minor background copper absorbance.

human skin explants [2] = experiment: UV-induced 8-nitroguanine (8NGO) in human skin explants (immunohistochemistry); format: cell-based; details: either protocol
Excerpt: FIG. 6. (A) Representative images of immunohistochemical staining of 8NGO in human explants from isotype control and sham exposed explants. (B) Representative images of immunohistochemical staining of 8NGO in human skin explants from UV-exposed explants. (C-D) Analysis of 8NGO in epidermis (C) and dermis (D) of skin explants. Bars indicate significant differences **** p<0.001; NS=not significant between data sets (n=3 explants per data point).
(§1) Exposure of skin to UV radiation induces oxidative stress via a dramatic increase in ROS (see, Dunaway et al., 2018). In this section of the research work we measured oxidative DNA damage caused by UV-induced cyclobutene pyrimidine dimers (CPD), oxidative DNA damage resulting from UV-induced 8-oxo-guanine (8-oxoG), and nitrosative DNA damage caused by 8-nitroguanine (8NG) (Mason et al., 2013). Typically, if these DNA lesions are not adequately repaired, they lead to mutations which may then lead to the development of skin tumours (Mason et al., 2013). Our primary objective here was to determine if RM191A, when applied topically to ex vivo human skin, reduced UV-induced DNA damage.
(§2) The same treatment protocols were also followed for a placebo gel which contained no RM191A. […]

human skin explants [3] = experiment: UV-induced 8-oxoG in human skin explants (immunohistochemistry); format: cell-based; details: epidermis; treatment of UV-exposed explants (post-treatment, RM191A Gel 2); vs UV-exposed controls
Excerpt: FIG. 5. (A) Representative images of immunohistochemical staining of 8-oxoG in human explants from isotype control and sham exposed explants. (B) Representative images of immunohistochemical staining of 8-oxoG in human skin explants from UV-exposed explants. (C-D) Analysis of 8-oxoG in (C) epidermis and (D) dermis of skin explants. Bars indicate significant differences **** p<0.001; NS=not significant between data sets (n=3 explants per data point).
as §1, §2

human skin explants [4] = experiment: UV-induced CPD in human skin explants (immunohistochemistry); format: cell-based; details: epidermis; treatment of UV-exposed explants (post-treatment, RM191A Gel 2); vs UV-exposed controls
Excerpt: FIG. 4: RM191A protects against UV-induced oxidative stress. (A) Representative images of immunohistochemical staining of CPDs in human explants from isotype control and sham exposed explants. There was little staining in the isotype control. […] (B) Representative images of immunohistochemical staining of CPDs in human skin explants from UV-exposed explants. (C) Analysis of CPD in epidermis of skin explants. Bars indicate significant differences **** p<0.001; NS=not significant between data sets (n=3 explants per data point).
as §1, §2

For “SOD: bovine superoxide dismutase used as comparator”, the “Absorbance (Table 5)” value ([1]; 1.6 μM) was 0.2988, the “Absorbance (Table 5)” value ([1]; 20 μM) was 0.2879 and the “Absorbance (Table 5)” value ([1]; 40 μM) was 0.2348. The “Absorbance (Table 5)” value ([1]; 80 μM) was 0.332, the “Absorbance 560 nm Ave” value ([1]; Molarity 0.0000016) was 0.2988 and the “Absorbance 560 nm Ave” value ([1]; Molarity 0.00002) was 0.2879. The “Absorbance 560 nm Ave” value ([1]; Molarity 0.00004) was 0.2348, the “Absorbance 560 nm Ave” value ([1]; Molarity 0.00008) was 0.332 and the “Absorbance 560 nm Ave” value ([1]; Molarity 0.0001) was 0.3163. For the same compound, the “Absorbance 560 nm Ave” value ([1]; Molarity 0.00012) was 0.3215 and the “Absorbance 560 nm Ave” value ([1]; Molarity 0.00014) was 0.3555.
In the case of `C=C1/C(=C\C=C2/CCC[C@]3(C)[C@@H]([C@H](C)CCCC(C)(C)O)CC[C@@H]23)C[C@@H](O)C[C@@H]1O` [1,25D, 1,25-dihydroxy vitamin D3], the “8NGO vs UV-exposed controls” value (human skin explants [2]) is reported as “significantly decreased”, the “decrease in nuclear 8-oxoG” value (human skin explants [3]) is reported as 27% and the “decrease in CPD” value (human skin explants [4]) is reported as 30%.
